Data published in patent publication US20120101257A1, “PROCESSES FOR PREPARING AMINO-SUBSTITUTED GAMMA-LACTAMS” (UNIVERSITE DE MONTREAL, priority 2009, published 2012).
Blank lines part the entries; values can stand above or below the molecule they belong to. *1 amine or outer side, *2 acyl side, *3 side chain or, on linkers, in order; H or OH if unused. Where a SMILES comes first, the peptide text is derived from it. [ ]: non-standard residue; d: D form. The star is where a group is joined. X12 = CC(C)C[C@@H](NC(=N)[C@@H](CCC(=O)O)N1C[C@H](N[*:1])CC1=O)C(=O)[*:2]; X13 = C[C@@H](O)[C@H](C(=O)[*:2])N1C[C@H](N[*:1])CC1=O; X11 = N[C@@H]1CCN([C@H](Cc2ccc(O)cc2)C(=O)*)C1=O; d(aThr) = C[C@@H](O)[C@@H](N)C(=O)O

How the values were obtained:
TF-1 cells = assay: [3H]thymidine incorporation, IL-1 induced TF-1 cell proliferation; type: cell-based, human; conditions: for percentage of proliferation of TF-1 cells pre-treated with peptide: IL-1 induced, [3H]thymidine incorporation as in Example 59
Experimental: Human TF-1 cells (5×10^4 cells/well) were cultured in complete RPMI medium (GIBCO RPMI Medium 1640, Invitrogen) supplemented with GM-CSF (Granulocyte Macrophage Colony Stimulating Factor, 2 ng/ml; BD Biosource). Cells were deprived of growth factors for 18 h before preincubation with lactam peptide (1 μM) followed by treatment with IL-1β (10 or 25 ng/mL). After 24 h incubation at 37° C., [^3H]thymidine (1 μCi/mL; Amersham) was added and the cells were incubated for another 24 h. Cells were harvested, washed two times with PBS (10 mM Na2HPO4, 2 mM KH2PO4, 137 mM NaCl, 2.7 mM KCl; pH 7.4) and lysed with a 0.1 N NaOH/0.1% Triton X-100 solution. Scintillation cocktail (Fisher Scientific, 8 mL/sample) was added to the lysate, and after 3 h, radioactivity was measured (Beckman Multi-Purpose Scintillation Coulter Counter LS6500). Results were analyzed by one- or two-way ANOVA factoring for concentration or treatments. Postanova comparisons among means were performed using the Tukey-Framer method. Statistical significance was set at p<0.05. Data are presented as mean±SEM.

[1] = lactam peptide 1 μM, IL-1β 10 or 25 ng/mL

Molecule: CC(C)C[C@@H](NC(=O)[C@@H](CCC(=O)O)NC(=O)[C@H](NC(=O)[C@H](NC(=O)[C@@H](Cc1ccc(O)cc1)N1CC[C@@H](N)C1=O)[C@@H](C)O)C(C)C)C(=O)N[C@H](C)C(N)=O [Compound 54, (R)-Agl-D-Tyr-D-Thr-D-Val-D-Glu-D-Leu-D-Ala-NH2] (X11-[d(aThr)][dV][dE][dL][dA]-NH2)
increase in efficacy compared to 101.10, inhibition of IL-1 induced TF-1 proliferation (TF-1 cells; [1]): 2.2 fold

Molecule: CC(C)C[C@@H](NC(=O)[C@@H](CCC(=O)O)NC(=O)[C@@H](C(C)C)N1CC[C@@H](NC(=O)[C@@H](Cc2ccc(O)cc2)NC(=O)[C@H](N)CCCNC(=N)N)C1=O)C(=O)N[C@H](C)C(N)=O [Compound 56, D-Arg-D-Tyr-(R)-Agl-D-Val-D-Glu-D-Leu-D-Ala-NH2]
inhibition of IL-1 induced TF-1 proliferation (in words) (TF-1 cells; [1]): failed to block proliferation

Molecule: D-Arg-D-Tyr-D-Thr-(S)-Agl-D-Glu-D-Leu-D-Ala-NH2 [Compound 94]
percentage of proliferation of TF-1 cells pre-treated with peptide (TF-1 cells): 132%

melting point: 138 to 140 °C
Molecule: COC(=O)C[C@H]1COS(=O)(=O)N1C(=O)OCC1c2ccccc2-c2ccccc21 [(4S)-17, (4S)-Methyl-2-[3-(9-fluorenylmethoxycarbonyl)-2,2-dioxo-1,2,3-oxathiazolidin-4-yl]acetate]

Molecule: CC(C)C[C@@H](NC(=N)[C@@H](CCC(=O)O)N1C[C@H](NC(=O)[C@H](NC(=O)[C@@H](Cc2ccc(O)cc2)NC(=O)[C@H](N)CCCNC(=N)N)[C@@H](C)O)CC1=O)C(=O)N[C@H](C)C(N)=O [Compound 78, D-Arg-D-Tyr-D-Thr-(R)-Bgl-D-Glu-D-Leu-D-Ala-NH2] (H-[dR][dY][d(aThr)][X12][dA]-NH2)
increase in efficacy compared to 101.10, inhibition of IL-1 induced TF-1 proliferation (TF-1 cells; [1]): 2.4 fold

Molecule: CC(C)C[C@@H](NC(=O)[C@@H](CCC(=O)O)NC(=O)[C@H](NC(=O)[C@@H]([C@@H](C)O)N1C[C@H](NC(=O)[C@H](N)CCCNC(=N)N)CC1=O)C(C)C)C(=O)N[C@H](C)C(N)=O [Compound 76, D-Arg-(R)-Bgl-D-Thr-D-Val-D-Glu-D-Leu-D-Ala-NH2] (H-[dR][X13][dV][dE][dL][dA]-NH2)
increase in efficacy compared to 101.10, inhibition of IL-1 induced TF-1 proliferation (TF-1 cells; [1]): 1.7 fold

Molecule: D-Arg-D-Tyr-(S)-Agl-D-Val-D-Glu-D-Leu-D-Ala-NH2 [Compound 93]
percentage of proliferation of TF-1 cells pre-treated with peptide (TF-1 cells): 150%
